Where a SMILES comes first, the peptide text is derived from it. The star is where a group is joined. Palmitoyl = CCCCCCCCCCCCCCCC(=O)*
Assay: Solubilization of each lyophilized lipopeptide in pure acetic acid
Type: physicochemical
Details: pure acetic acid added to obtain 12.5 mg net/ml; before sonication
Method: Each lipopeptide is then solubilized by adding pure acetic acid to obtain a concentration of 12.5 mg net/ml. […] If the aggregates are not dissociated, the sonication is continued, separating each period of sonication (30 s) by 30 s gaps of no sonication, during which the bottles are shaken manually. At the end of the sonication step, the suspensions should be homogeneous (but will not be clear). Each lipopeptide is then diluted by adding water for injectable preparation. If the solution obtained is not totally clear, steps of heating in a water bath (at 40° C.±2° C.) and sonication (1 min maximum) may be carried out, separating them by 30 s gaps of no sonication. The final preparation is obtained by mixing the lipopeptides in equal weight amounts, adding them in the following order (the most hydrophilic to the most hydrophobic lipopeptides):

CCCCCCCCCCCCCCCC(=O)NCCCC[C@H](NC(=O)[C@H](CC(C)C)NC(=O)[C@H](CCCCN)NC(=O)[C@H](Cc1ccc(O)cc1)NC(=O)[C@H](CC(C)C)NC(=O)[C@H](Cc1c[nH]c2ccccc12)NC(=O)CNC(=O)[C@H](Cc1ccccc1)NC(=O)[C@@H](NC(=O)[C@H](CC(C)C)NC(=O)[C@@H]1CCCN1C(=O)[C@H](Cc1ccc(O)cc1)NC(=O)[C@H](CCCNC(=N)N)NC(=O)[C@@H](NC(=O)CNC(=O)[C@@H]1CCCN1C(=O)CNC(=O)[C@@H]1CCCN1C(=O)[C@@H](NC(=O)[C@H](Cc1ccc(O)cc1)NC(=O)[C@H](CC(N)=O)NC(=O)[C@H](CCC(N)=O)NC(=O)[C@H](Cc1c[nH]c2ccccc12)NC(=O)[C@H](CC(=O)O)NC(=O)[C@@H]1CCCN1C(=O)[C@H](Cc1ccccc1)NC(=O)[C@H](Cc1ccc(O)cc1)NC(=O)CNC(=O)[C@H](CCC(N)=O)NC(=O)[C@@H](NC(=O)[C@@H](N)Cc1c[nH]cn1)[C@@H](C)O)[C@@H](C)O)C(C)C)[C@@H](C)O)C(N)=O [Nef 116] (H-HTQGYFPDWQNYTPGPGVRYPLTFGWLYKLK(Palmitoyl)-NH2; N-terminus assumed)
solubility in pure acetic acid: soluble
